Experimental data reported in patent US20250230193A1, “CYCLIC COMPOUND HAVING SELECTIVE KRAS INHIBITORY EFFECT ON HRAS AND NRAS” (CHUGAI SEIYAKU KABUSHIKI KAISHA, priority 2022, published 2025).

Tests used:
[1] = target: GDP-bound NRAS wild-type protein (Homo sapiens, UniProt P01111); assay: Binding to NRAS by surface plasmon resonance (SPR), Single Cycle Kinetics; details: KD ratio NRAS/KRAS, class symbols
[2] = target: GDP-bound HRAS wild-type protein (Homo sapiens, UniProt P01112); assay: Binding to HRAS by surface plasmon resonance (SPR), Single Cycle Kinetics; details: KD ratio HRAS/KRAS, class symbols
GDP-bound HRAS wild-type protein, sequence (P01112 whole entry): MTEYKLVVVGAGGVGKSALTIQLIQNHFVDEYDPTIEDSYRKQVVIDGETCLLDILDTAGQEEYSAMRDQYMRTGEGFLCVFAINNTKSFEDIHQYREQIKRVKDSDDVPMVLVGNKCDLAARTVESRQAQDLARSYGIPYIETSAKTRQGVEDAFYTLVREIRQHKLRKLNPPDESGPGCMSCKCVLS

GDP-bound NRAS wild-type protein, sequence (P01111 whole entry): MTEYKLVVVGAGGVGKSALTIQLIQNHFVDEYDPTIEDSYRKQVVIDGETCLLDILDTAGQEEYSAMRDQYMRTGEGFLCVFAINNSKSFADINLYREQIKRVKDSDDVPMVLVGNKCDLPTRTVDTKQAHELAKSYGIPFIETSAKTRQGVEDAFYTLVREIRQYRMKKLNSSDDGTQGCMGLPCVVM

Row | SMILES | NRAS/KRAS (ratio of KD value with respect to GDP-bound NRAS wild-type protein to KD value with respect to KRAS) [1] | HRAS/KRAS (ratio of KD value with respect to GDP-bound HRAS wild-type protein to KD value with respect to KRAS) [2]
1 | CCC[C@H]1C(=O)N[C@@H]([C@@H](C)CC)C(=O)N(C2CC2)CC(=O)N(C)[C@H]2C/C=C\CCN(C2=O)[C@@H](Cc2ccc(C(F)F)cc2)C(=O)N(C)CC(=O)N[C@@H](CCc2cc(F)c(C(F)(F)F)c(F)c2)C(=O)N2C[C@H](OC(C)C)C[C@H]2C(=O)NC2(CC(C)(C)C2)C(=O)N(C)[C@@H](C(CC)CC)C(=O)N(C)[C@H](C(=O)N(C)C)CC(=O)N1C [PP2529] | AA (a compound having 20 or more is denoted as AA) | A (a compound having 10 or more and less than 20 is denoted as A)
2 | CCC[C@H]1C(=O)N[C@@H]([C@@H](C)CC)C(=O)N(C)CC(=O)N(C)[C@H]2C/C=C\CCN(C2=O)[C@@H](Cc2ccc(C(F)F)cc2)C(=O)N(C)CC(=O)N[C@@H](CCc2ccc(Cl)c(Cl)c2)C(=O)N2C[C@H](OCC)C[C@H]2C(=O)NC2(CC(C)(C)C2)C(=O)N(C)[C@@H](C(CC)CC)C(=O)N(C)[C@H](C(=O)N(C)C)CC(=O)N1C [PP2531] | AA (a compound having 20 or more is denoted as AA) | A (a compound having 10 or more and less than 20 is denoted as A)
3 | CCC[C@H]1C(=O)N[C@@H](CC(C)C)C(=O)N(C2CC2)CC(=O)N(C)[C@H]2C/C=C\CCN(C2=O)[C@@H](Cc2ccc(C)cc2)C(=O)N(C)CC(=O)N[C@@H](CCc2cc(F)c(C(F)(F)F)c(F)c2)C(=O)N2C[C@H](OCC)C[C@H]2C(=O)NC2(CCC2)C(=O)N(C)[C@@H](C2CCCC2)C(=O)N(C)[C@H](C(=O)N(C)C)CC(=O)N1C [PP2532] | A (a compound having 10 or more and less than 20 is denoted as A) | B (a compound having 3 or more and less than 10 is denoted as B)
4 | CCC(CC)[C@H]1C(=O)N(C)[C@H](C(=O)N(C)C)CC(=O)N(C)[C@@H](COC)C(=O)N[C@@H]([C@@H](C)CC)C(=O)N(C)CC(=O)N(C)[C@H]2C/C=C\CCN(C2=O)[C@@H](Cc2ccc(C(F)(F)F)cc2)C(=O)N(C)CC(=O)N[C@@H](CCc2ccc(Cl)c(Cl)c2)C(=O)N2C[C@H](OC(C)C)C[C@H]2C(=O)NC2(CC(C)(C)C2)C(=O)N1C [PP2533] | AA (a compound having 20 or more is denoted as AA) | A (a compound having 10 or more and less than 20 is denoted as A)
5 | CCC[C@H]1C(=O)N[C@@H](CC(C)C)C(=O)N(C2CC2)CC(=O)N(C)[C@H]2C/C=C\CCN(C2=O)[C@@H](Cc2ccc(C)cc2)C(=O)N(C)CC(=O)N[C@@H](CCc2ccc(C(F)(F)F)c(OC)c2)C(=O)N2C[C@H](OCC)C[C@H]2C(=O)NC2(CCC2)C(=O)N(C)[C@@H](C2CCCC2)C(=O)N(C)[C@H](C(=O)N(C)C)CC(=O)N1C [PP2534] | A (a compound having 10 or more and less than 20 is denoted as A) | B (a compound having 3 or more and less than 10 is denoted as B)
6 | CCC[C@H]1C(=O)N[C@@H]([C@@H](C)CC)C(=O)N(C)CC(=O)N(C)[C@H]2C/C=C\CCN(C2=O)[C@@H](Cc2ccc(C(F)F)cc2)C(=O)N(C)CC(=O)N[C@@H](CCc2ccc(Cl)c(Cl)c2)C(=O)N2C[C@H](OC(C)C)C[C@H]2C(=O)NC2(CC(C)(C)C2)C(=O)N(C)[C@@H](C(CC)CC)C(=O)N(C)[C@H](C(=O)N(C)C)CC(=O)N1C [PP2535] | AA (a compound having 20 or more is denoted as AA) | A (a compound having 10 or more and less than 20 is denoted as A)
7 | C#CCN1CC(=O)N(C)[C@H]2C/C=C\CCN(C2=O)[C@@H](Cc2ccc(C)cc2)C(=O)N(C)CC(=O)N[C@@H](CCc2cc(F)c(C(F)(F)F)c(F)c2)C(=O)N2C[C@H](OCC)C[C@H]2C(=O)NC2(CCC2)C(=O)N(C)[C@@H](C2CCCC2)C(=O)N(C)[C@H](C(=O)N(C)C)CC(=O)N(C)[C@@H](CCC)C(=O)N[C@@H](CC(C)C)C1=O [PP2536] | A (a compound having 10 or more and less than 20 is denoted as A) | B (a compound having 3 or more and less than 10 is denoted as B)
8 | CCC[C@H]1C(=O)N[C@@H]([C@@H](C)CC)C(=O)N(C)CC(=O)N(C)[C@H]2C/C=C\CCN(C2=O)[C@@H](Cc2ccc(C)cc2)C(=O)N(C)CC(=O)N[C@@H](CCc2ccc(Cl)c(Cl)c2)C(=O)N2C[C@H](OC(C)C)C[C@H]2C(=O)NC2(CC(C)(C)C2)C(=O)N(C)[C@@H](C(CC)CC)C(=O)N(C)[C@H](C(=O)N(C)C)CC(=O)N1C [PP2537] | AA (a compound having 20 or more is denoted as AA) | A (a compound having 10 or more and less than 20 is denoted as A)
9 | CCC[C@H]1C(=O)N[C@@H](CC(C)C)C(=O)N(CC)CC(=O)N(C)[C@H]2C/C=C\CCN(C2=O)[C@@H](Cc2ccc(C)cc2)C(=O)N(C)CC(=O)N[C@@H](CCc2cc(F)c(C(F)(F)F)c(F)c2)C(=O)N2C[C@H](OCC)C[C@H]2C(=O)NC2(CCC2)C(=O)N(C)[C@@H](C2CCCC2)C(=O)N(C)[C@H](C(=O)N(C)C)CC(=O)N1C [PP2539] | A (a compound having 10 or more and less than 20 is denoted as A) | B (a compound having 3 or more and less than 10 is denoted as B)
10 | CCC[C@H]1C(=O)N[C@@H](CC(C)C)C(=O)N(CC)CC(=O)N(C)[C@H]2C/C=C\CCN(C2=O)[C@@H](Cc2ccc(C)cc2)C(=O)N(C)CC(=O)N[C@@H](CCc2ccc(C(F)(F)F)c(OC)c2)C(=O)N2C[C@H](OCC)C[C@H]2C(=O)NC2(CCC2)C(=O)N(C)[C@@H](C2CCCC2)C(=O)N(C)[C@H](C(=O)N(C)C)CC(=O)N1C [PP2540] | A (a compound having 10 or more and less than 20 is denoted as A) | B (a compound having 3 or more and less than 10 is denoted as B)
11 | CCC[C@H]1C(=O)N[C@@H](CC(C)C)C(=O)N(CCOC)CC(=O)N(C)[C@H]2C/C=C\CCN(C2=O)[C@@H](Cc2ccc(C)cc2)C(=O)N(C)CC(=O)N[C@@H](CCc2cc(F)c(C(F)(F)F)c(F)c2)C(=O)N2C[C@H](OCC)C[C@H]2C(=O)NC2(CCC2)C(=O)N(C)[C@@H](C2CCCC2)C(=O)N(C)[C@H](C(=O)N(C)C)CC(=O)N1C [PP2541] | A (a compound having 10 or more and less than 20 is denoted as A) | B (a compound having 3 or more and less than 10 is denoted as B)
12 | CCC[C@H]1C(=O)N[C@@H](CC(C)C)C(=O)N(CCOC)CC(=O)N(C)[C@H]2C/C=C\CCN(C2=O)[C@@H](Cc2ccc(C)cc2)C(=O)N(C)CC(=O)N[C@@H](CCc2ccc(C(F)(F)F)c(OC)c2)C(=O)N2C[C@H](OCC)C[C@H]2C(=O)NC2(CCC2)C(=O)N(C)[C@@H](C2CCCC2)C(=O)N(C)[C@H](C(=O)N(C)C)CC(=O)N1C [PP2542] | B (a compound having 3 or more and less than 10 is denoted as B) | B (a compound having 3 or more and less than 10 is denoted as B)
13 | CCC[C@H]1C(=O)N[C@@H](CC(C)C)C(=O)N(CC)CC(=O)N(C)[C@H]2C/C=C\CCN(C2=O)[C@@H](Cc2ccc(C)cc2)C(=O)N(C)CC(=O)N[C@@H](CCc2ccc(C(F)(F)F)c(Cl)c2)C(=O)N2C[C@H](OCC)C[C@H]2C(=O)NC2(CCC2)C(=O)N(C)[C@@H](C2CCCC2)C(=O)N(C)[C@H](C(=O)N(C)C)CC(=O)N1C [PP2545] | A (a compound having 10 or more and less than 20 is denoted as A) | A (a compound having 10 or more and less than 20 is denoted as A)
14 | CCC[C@H]1C(=O)N[C@@H](CC(C)C)C(=O)N(CCOC)CC(=O)N(C)[C@H]2C/C=C\CCN(C2=O)[C@@H](Cc2ccc(C)cc2)C(=O)N(C)CC(=O)N[C@@H](CCc2ccc(C(F)(F)F)c(Cl)c2)C(=O)N2C[C@H](OCC)C[C@H]2C(=O)NC2(CCC2)C(=O)N(C)[C@@H](C2CCCC2)C(=O)N(C)[C@H](C(=O)N(C)C)CC(=O)N1C [PP2546] | B (a compound having 3 or more and less than 10 is denoted as B) | B (a compound having 3 or more and less than 10 is denoted as B)
15 | CCC[C@H]1C(=O)N[C@@H](CC(C)C)C(=O)N2C[C@@H](OC)C[C@H]2C(=O)N(C)[C@H]2C/C=C\CCN(C2=O)[C@@H](Cc2ccc(C)cc2)C(=O)N(C)CC(=O)N[C@@H](CCc2cc(F)c(C(F)(F)F)c(F)c2)C(=O)N2C[C@H](OCC)C[C@H]2C(=O)NC2(CCC2)C(=O)N(C)[C@@H](C2CCCC2)C(=O)N(C)[C@H](C(=O)N(C)C)CC(=O)N1C [PP2547] | A (a compound having 10 or more and less than 20 is denoted as A) | B (a compound having 3 or more and less than 10 is denoted as B)
16 | CCC[C@H]1C(=O)N[C@@H](CC(C)C)C(=O)N2C[C@@H](OC)C[C@H]2C(=O)N(C)[C@H]2C/C=C\CCN(C2=O)[C@@H](Cc2ccc(C)cc2)C(=O)N(C)CC(=O)N[C@@H](CCc2ccc(C(F)(F)F)c(OC)c2)C(=O)N2C[C@H](OCC)C[C@H]2C(=O)NC2(CCC2)C(=O)N(C)[C@@H](C2CCCC2)C(=O)N(C)[C@H](C(=O)N(C)C)CC(=O)N1C [PP2548] | A (a compound having 10 or more and less than 20 is denoted as A) | B (a compound having 3 or more and less than 10 is denoted as B)
